Publication PMC9228412, “Synthesis and Activity of Triazole-Adenosine Analogs as Protein Arginine Methyltransferase 5 Inhibitors” (Molecules, 2022)
Where two headings read alike, the source gives them in different places.

Tests used:
PRMT5 [1] = conditions: cited from earlier work
PRMT1 = PRMT1 (Homo sapiens, UniProt Q99873); assay: scintillation proximity assay (SPA) of PRMT1 methyltransferase activity; format: biochemical; conditions: for remaining activity at 10 µM: 0.5 h, remaining activity of the enzyme, single point SPA test, inhibitor 10 μM, read-out: Relative Activity of PRMT1 at 10 μM
Procedure: (§1) The methyltransferase activities of PRMT5 and PRMT1 in the absence and presence of the synthetic inhibitors were measured by using the scintillation proximity assay (SPA) protocol (Table 1). In the initial test, the inhibitor concentration was set at 10 μM. H4(1–20)K20biotin [Ac-[…](biotin)-NH2] was used as the peptide substrate, at a final concentration of 0.5 μM. ^3H-SAM was used as the methyl donor at 0.5 μM. SAH was used as a control inhibitor. […] Analysis of the biochemical activity results against PRMT5 disclosed a few interesting structure–activity relationship (SAR) trends. […] If the hydroxyl group of 3 was changed to an amine (6), the potency was improved; however, the selectivity was abolished. Generally, compounds that contained positive charges (6, 20, 21, 22, 24) near the triazole ring had further improved potencies.
Inhibitor was dissolved in water to create a 10 mM stock concentration. This was then diluted in buffer (50 mM HEPES pH 8, 10 mM NaCl, 0.5 mM EDTA, 0.5 mM DTT in H2O) to create a series of working concentrations centered around an anticipated IC50. [H]^3-SAM and substrate were diluted together in buffer to working concentrations of […], respectively. To each well in a 96-well plate, 6 μL of the inhibitor solution was added, with negative and positive controls receiving buffer. In total, 6 μL of the [H]^3-SAM/substrate solution was then added to each well. The enzyme was then diluted in buffer to a working concentration of 0.83 μM, and 18 μL was added to each well, with negative controls receiving 18 μL of buffer. The plate was covered, and the reaction was allowed to run for 30 min and was then quenched with the addition of 30 μL of 100% iPrOH followed by 60 μL of 50% iPrOH in H2O. In total, 10 μL of 20 mg/mL streptavidin-coated scintillant beads were added and the plate was read using a MicroBeta (Perkin Elmer, Waltham, MA, USA) plate reader. The CPM counts in the absence of an inhibitor for each data set were considered as 100% activity. In the absence of the enzyme and inhibitor, the CPM counts in each data set were defined as background (0%).

PRMT5 [2] = target: T1, PRMT5 (Homo sapiens, UniProt O14744); assay: scintillation proximity assay (SPA) of PRMT5 methyltransferase activity; format: biochemical; conditions: for remaining activity at 10 µM: 0.5 h, remaining activity of the enzyme, single point SPA test, inhibitor 10 μM, read-out: Relative Activity of PRMT5 at 10 μM
T1 construct: His-tag; made in house; host or cells: Sf9 insect cells (Bac-to-Bac baculovirus)
Procedure: as §1
Human recombinant His-tag PRMT5 was co-expressed with His-tag MEP50 using the Bac-to-Bac baculovirus expression system (Invitrogen, Life Technologies, Carlsbad, CA, USA) as previously described. Briefly, pFB-LIC-Bse-PRMT5 and pFB-LIC-Bse-MEP50 were heat shock transformed in the DH10Bac E. coli to obtain the recombinant bacmids, and the bacmids were extracted using the PureLink HiPure Plasmid Miniprep Kit (Invitrogen, Thermo Scientific, Carlsbad, CA, USA). The purity and concentration of the plasmid were measured by a Nanodrop. Sf9 cells were cultured in Sf-900 II SFM medium until the cell density reached 1.5 × 10^6 cells/mL and cell viability was more than 95%. Cells were plated in a 6-well tissue culture plate at a density of 4 × 10^5 cells/mL per well. In total, 2 µg of PRMT5 and MEP50 recombinant bacmid were transfected into each well of cells. After 5 h of transfection, the transfection medium was replaced by 2 mL of Sf-900 II SFM + 100 U P/S per well. The medium was collected and centrifuged at 1000 rpm for 5 min to obtain the supernatant P1 viral stock after 7 days of inoculation at 27.5 °C. To obtain a higher titer of viral stock, P1 viral stock was amplified in a 6-well tissue culture plate containing 2 × 10^6 cells per well. In total, 0.1 MOI of P1 virus stock was added into each well. After 7 days of incubation at 27.5 °C, the cell medium was centrifuged at 1000 rpm for 5 min to obtain the P2 viral stock in the supernatant. The Baculovirus plaque assay was performed to determine the viral titer concentration; the target concentration range was 1 × 10^7–1 × 10^8 IFU/mL.
For the expression of PRMT5 and MEP50, Sf9 insect cells were cultured in suspension at 27.5 °C at a speed of 130 rpm in Expression Systems ESF 921 medium with 100 U P/S. In total, 200 mL of Sf9 cell culture was inoculated with PRMT5 and MEP50 P2 viral stocks when the cell density reached 1.5 × 10^6 cells/mL. After incubation for 72 h at 27.5 °C, the cells were harvested and centrifuged. PRMT5 and MEP50 protein were collected in the cell pellet for further purification. Cell pellets were disrupted twice at 100 psi in 25 mL of cell lysis buffer (50 mM Tris pH 8, 300 mM NaCl, 10% glycerol, 0.1% Triton X-100, 1 mM PMSF). Before the Ni-NTA purification, 10 mL of Ni-NTA resin (EMD Millipore, Burlington, MA, USA) was loaded into a 50 mL column and equilibrated with equilibration buffer (50 mM Tris pH 8, 250 mM NaCl, 30 mM Imidazole, 10% glycerol, 1 mM TCEP, 1 mM PMSF). After 60 min of cell lysate centrifugation at 4 °C at 18,000 rpm, the cell lysate supernatant was incubated with the equilibrated nickel resin. The resin was washed with equilibration buffer and protein was eluted with elution buffer (50 mM Tris pH 8, 250 mM NaCl, 300 mM Imidazole, 10% glycerol, 1 mM TCEP, 1 mM PMSF). For the dialysis of protein, elution samples were loaded into a 10,000 MWCO SnakeSkin (Thermo Scientific, Waltham, MA, USA) dialysis bag in the storage buffer (50 mM Tris pH 8, 250 mM NaCl, 10% glycerol, 1 mM TCEP). […]

[3] = test system: 29 other human methyltransferases; parameters: method as in PMID 25893041; conditions: cited from earlier work
[4] = parameters: method as in PMID 25915199; conditions: cited from earlier work
BCR-ABL-driven CML = test system: BCR-ABL-driven CML; parameters: method as in PMID 27643437; conditions: murine model of BCR-ABL-driven CML; cited from earlier work
[5] = SPA, concentration-dependent, read-out: IC50 PRMT1 (converted)
[6] = SPA, concentration-dependent, 0.5 μM H4(1–20)K20biotin, 0.5 μM 3H-SAM, read-out: IC50 PRMT5 (converted)
[7] = 0.5 μM H4(1–20)K20biotin, 0.5 μM 3H-SAM

PRMT1, sequence (Q99873 whole entry, species assumed): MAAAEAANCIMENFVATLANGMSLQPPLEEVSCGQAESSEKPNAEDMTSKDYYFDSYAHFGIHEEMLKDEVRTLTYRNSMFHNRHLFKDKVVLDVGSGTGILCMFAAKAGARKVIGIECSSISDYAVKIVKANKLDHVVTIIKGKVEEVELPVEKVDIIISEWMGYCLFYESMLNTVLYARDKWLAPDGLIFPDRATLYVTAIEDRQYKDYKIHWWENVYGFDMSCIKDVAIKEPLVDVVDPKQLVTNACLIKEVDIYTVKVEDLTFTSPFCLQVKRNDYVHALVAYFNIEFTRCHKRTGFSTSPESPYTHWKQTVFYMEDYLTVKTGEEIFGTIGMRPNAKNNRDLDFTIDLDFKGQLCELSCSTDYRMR
T1 sequence (O14744 whole entry): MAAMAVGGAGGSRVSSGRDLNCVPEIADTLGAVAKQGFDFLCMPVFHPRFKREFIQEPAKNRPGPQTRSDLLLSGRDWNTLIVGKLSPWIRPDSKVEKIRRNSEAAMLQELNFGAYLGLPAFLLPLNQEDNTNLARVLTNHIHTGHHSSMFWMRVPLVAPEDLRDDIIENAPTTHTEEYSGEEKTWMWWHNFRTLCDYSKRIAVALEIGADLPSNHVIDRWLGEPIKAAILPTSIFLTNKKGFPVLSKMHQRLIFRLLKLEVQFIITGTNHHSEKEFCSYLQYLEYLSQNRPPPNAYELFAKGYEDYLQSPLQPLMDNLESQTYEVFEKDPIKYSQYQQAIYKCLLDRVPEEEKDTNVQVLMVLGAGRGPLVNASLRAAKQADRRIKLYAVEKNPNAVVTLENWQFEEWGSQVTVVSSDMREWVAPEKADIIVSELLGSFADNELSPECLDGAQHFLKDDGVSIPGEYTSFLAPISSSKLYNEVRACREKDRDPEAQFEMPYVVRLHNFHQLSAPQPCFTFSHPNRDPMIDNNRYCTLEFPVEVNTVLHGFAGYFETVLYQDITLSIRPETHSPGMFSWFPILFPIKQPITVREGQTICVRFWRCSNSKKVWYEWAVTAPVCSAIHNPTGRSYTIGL
T1 sequence (Q9BQA1 whole entry partner): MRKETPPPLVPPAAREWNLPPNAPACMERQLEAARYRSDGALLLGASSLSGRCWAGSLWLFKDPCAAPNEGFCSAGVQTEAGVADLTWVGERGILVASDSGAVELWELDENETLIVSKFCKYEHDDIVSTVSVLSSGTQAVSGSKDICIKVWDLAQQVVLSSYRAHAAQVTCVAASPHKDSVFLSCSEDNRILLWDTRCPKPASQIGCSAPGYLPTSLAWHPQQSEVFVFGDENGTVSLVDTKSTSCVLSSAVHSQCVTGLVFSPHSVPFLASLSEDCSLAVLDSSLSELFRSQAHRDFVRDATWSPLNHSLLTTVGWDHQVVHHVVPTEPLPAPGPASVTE

CCn1c2ccccc2c2cc(CNCc3ccccn3)ccc21 [CMP5]
potency (PRMT5 [1]): 50 µM

Nc1ncnc2c1ncn2[C@@H]1O[C@H](Cn2cc(C[C@H](N)C(=O)O)nn2)[C@@H](O)[C@H]1O [Compound 19, (S)-2-amino-3-(1-(((2R,3S,4R,5R)-5-(6-amino-9H-purin-9-yl)-3,4-dihydroxytetrahydrofuran-2-yl)methyl)-1H-1,2,3-triazol-4-yl)propanoic acid]
IC50 (PRMT1; [5]): > 200 µM
IC50 (PRMT5 [2]; [6]): 18.9 µM

CC(C)[C@H](N)C(=O)OCc1cn(C[C@H]2O[C@@H](n3cnc4c(N)ncnc43)[C@H](O)[C@@H]2O)nn1 [Compound 20, (1-(((2R,3S,4R,5R)-5-(6-amino-9H-purin-9-yl)-3,4-dihydroxytetrahydrofuran-2-yl)methyl)-1H-1,2,3-triazol-4-yl)methyl L-valinate]
remaining activity at 10 µM (PRMT1): 111 ± 5.5%
IC50 (PRMT1; [5]): 43.5 µM
remaining activity at 10 µM (PRMT5 [2]; [7]): 26 ± 0.45%
IC50 (PRMT5 [2]; [6]): 0.88 µM
selectivity for PRMT5 over PRMT1 (PRMT5 [2]; ratio of IC50 values): approximately 49 fold

Cc1cccc(NC(=O)CNCc2cn(C[C@H]3O[C@@H](n4cnc5c(N)ncnc54)[C@H](O)[C@@H]3O)nn2)c1 [Compound 21, 2-(((1-(((2R,3S,4R,5R)-5-(6-amino-9H-purin-9-yl)-3,4-dihydroxytetrahydrofuran-2-yl)methyl)-1H-1,2,3-triazol-4-yl)methyl)amino)-N-(m-tolyl)acetamide]
remaining activity at 10 µM (PRMT1): 84 ± 55%
remaining activity at 10 µM (PRMT5 [2]; [7]): 32 ± 3.3%

COC(=O)c1ccc(CNCc2cn(C[C@H]3O[C@@H](n4cnc5c(N)ncnc54)[C@H](O)[C@@H]3O)nn2)cc1 [Compound 22, Methyl 4-((((1-(((2R,3S,4R,5R)-5-(6-amino-9H-purin-9-yl)-3,4-dihydroxytetrahydrofuran-2-yl)methyl)-1H-1,2,3-triazol-4-yl)methyl)amino)methyl)benzoate]
remaining activity at 10 µM (PRMT1): 94.2 ± 2.2%
IC50 (PRMT1; [5]): 130 µM
remaining activity at 10 µM (PRMT5 [2]; [7]): 30 ± 1.7%
IC50 (PRMT5 [2]; [6]): 1.3 µM

Nc1ncnc2c1ncn2[C@@H]1O[C@H](Cn2cc(CNC(=O)Nc3ccc(Cl)cc3)nn2)[C@@H](O)[C@H]1O [Compound 23]
remaining activity at 10 µM (PRMT1): 91.8 ± 16%
remaining activity at 10 µM (PRMT5 [2]; [7]): 70 ± 5.6%

Nc1ncnc2c1ncn2[C@@H]1O[C@H](Cn2cc(CNCC(=O)Nc3ccccc3F)nn2)[C@@H](O)[C@H]1O [Compound 24, 2-(((1-(((2R,3S,4R,5R)-5-(6-amino-9H-purin-9-yl)-3,4-dihydroxytetrahydrofuran-2-yl)methyl)-1H-1,2,3-triazol-4-yl)methyl)amino)-N-(2-fluorophenyl)acetamide]
remaining activity at 10 µM (PRMT1): 93 ± 1.3%
remaining activity at 10 µM (PRMT5 [2]; [7]): 40 ± 3.6%
IC50 (PRMT5 [2]; [6]): 13.2 µM

CC(C)(C)OC(=O)NCC(=O)NCc1cn(C[C@H]2O[C@@H](n3cnc4c(N)ncnc43)[C@H](O)[C@@H]2O)nn1 [Compound 25]
remaining activity at 10 µM (PRMT1): 99.1 ± 13%
remaining activity at 10 µM (PRMT5 [2]; [7]): 72 ± 9.6%

Nc1cc2c(cc1F)OCC(=O)N2Cc1cn(C[C@H]2O[C@@H](n3cnc4c(N)ncnc43)[C@H](O)[C@@H]2O)nn1 [Compound 26]
remaining activity at 10 µM (PRMT1): 100 ± 4.6%
remaining activity at 10 µM (PRMT5 [2]; [7]): 83 ± 2.5%

CC(C)(C)OC(=O)NCCS(=O)(=O)Cc1cn(C[C@H]2O[C@@H](n3cnc4c(N)ncnc43)[C@H](O)[C@@H]2O)nn1 [Compound 28]
remaining activity at 10 µM (PRMT1): 77 ± 23%
remaining activity at 10 µM (PRMT5 [2]; [7]): 76 ± 11%

CC(=O)N[C@@H](CCCNC(=N)N)C(=O)N[C@@H](CCCNC(=N)N)C(=O)N[C@@H](Cc1cn(C[C@H]2O[C@@H](n3cnc4c(N)ncnc43)[C@H](O)[C@@H]2O)nn1)C(=O)N[C@@H](CCCNC(=N)N)C(=O)N[C@@H](CCCNC(=N)N)C(N)=O [Compound 29]
IC50 (PRMT1): > 400 µM
IC50 (PRMT5 [2]): 53.7 µM

CC(=O)N[C@@H](CO)C(=O)NCC(=O)N[C@@H](Cc1cn(C[C@H]2O[C@@H](n3cnc4c(N)ncnc43)[C@H](O)[C@@H]2O)nn1)C(=O)NCC(=O)N[C@@H](CCCCN)C(N)=O [Compound 30]
IC50 (PRMT1): 46.1 µM
IC50 (PRMT5 [2]): 45.6 µM

CCNC(=O)NCCSC[C@H]1O[C@@H](n2cnc3c(N)ncnc32)[C@H](O)[C@@H]1O [DS-437]
IC50 (PRMT5 [1]; dual PRMT5/PRMT7 inhibitor): 6 µM
activity towards 29 other human methyltransferases [3]: inactive

OC(COc1cccc(CNC2CCCC2)c1)CN1CCc2ccccc2C1 (centres unmarked) [EPZ007345]
potency (PRMT5 [1]): 0.326 µM
in vitro clearance [4]: poor

Nc1nc2cc(CC[C@H]3C[C@@H](n4ccc5c(N)ncnc54)[C@H](O)[C@@H]3O)ccc2cc1Br [JNJ-64619178]
IC50 (PRMT5 [1]; bisubstrate inhibitor): 0.00015 µM

CCn1c2ccccc2c2cc(CNC3CCCc4ccccc43)ccc21 (centres unmarked) [PJ-68]
survival (BCR-ABL-driven CML): significant increase in survival
